Reference: ChEMBL document CHEMBL1201862, “PubChem BioAssay data set” (2004)
Activity calls are given as the source filed them.

Experiments:
Protein skinhead-1 = molecular target: T1, Protein skinhead-1 (Caenorhabditis elegans, UniProt P34707); type: functional
T1 sequence (P34707 whole entry): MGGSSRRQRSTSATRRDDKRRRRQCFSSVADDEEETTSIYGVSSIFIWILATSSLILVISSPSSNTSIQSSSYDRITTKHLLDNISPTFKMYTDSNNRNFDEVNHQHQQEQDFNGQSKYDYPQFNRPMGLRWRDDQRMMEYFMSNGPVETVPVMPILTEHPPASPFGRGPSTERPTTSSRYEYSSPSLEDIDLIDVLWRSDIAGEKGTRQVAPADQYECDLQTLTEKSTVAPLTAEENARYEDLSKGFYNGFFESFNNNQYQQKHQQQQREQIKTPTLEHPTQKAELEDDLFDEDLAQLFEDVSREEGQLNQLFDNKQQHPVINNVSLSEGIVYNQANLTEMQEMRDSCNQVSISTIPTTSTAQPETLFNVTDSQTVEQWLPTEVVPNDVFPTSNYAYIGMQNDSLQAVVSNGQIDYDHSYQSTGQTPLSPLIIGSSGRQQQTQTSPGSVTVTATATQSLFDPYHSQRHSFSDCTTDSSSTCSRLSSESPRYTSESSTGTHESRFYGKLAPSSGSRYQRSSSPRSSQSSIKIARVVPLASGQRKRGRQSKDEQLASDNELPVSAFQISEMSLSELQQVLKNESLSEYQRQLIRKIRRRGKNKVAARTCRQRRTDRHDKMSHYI

[1] = molecular target: FAD-linked sulfhydryl oxidase ALR (Homo sapiens, UniProt P55789); assay: inhibitors of human ALR sulfhydryl oxidase, dose response, biochemical, H2O2 detection, luminescence, cherry-pick (AID 493248)
[2] = growth suppression of PTEN-null colon cells, dose response, cell-based, HCT116 PTEN knockout (AID 1047); type: functional;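 also: HCT116 colon tumor cells with PTEN knocked out; cells exposed to compound for 60 hours before readout; potency for loss of cell viability measured by luminescence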
[3] = growth suppression of beta-catenin-knockout colon cells, dose response, cell-based, HCT116, human colon tumor (AID 1045); type: functional;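 also: HCT116 colon tumor cells with beta catenin knocked out; cells exposed to compound for 60 hours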
[4] = molecular target: T2, Calpain-2 catalytic subunit (Sus scrofa, UniProt P43367); assay: pig calpain II inhibitor potency, dose response, biochemical, fluorogenic peptide substrate (AID 1420); type: functional
T2 sequence (P43367 whole entry): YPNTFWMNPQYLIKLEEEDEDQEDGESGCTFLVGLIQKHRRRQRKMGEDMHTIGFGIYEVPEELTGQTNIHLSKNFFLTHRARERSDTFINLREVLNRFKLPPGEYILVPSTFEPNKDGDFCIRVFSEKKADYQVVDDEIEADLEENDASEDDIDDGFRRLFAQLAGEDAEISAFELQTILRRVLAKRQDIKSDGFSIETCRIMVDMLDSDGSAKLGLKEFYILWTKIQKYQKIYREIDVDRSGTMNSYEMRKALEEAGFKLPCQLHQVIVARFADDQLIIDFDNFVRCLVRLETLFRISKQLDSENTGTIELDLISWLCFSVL

[5] = Luminescence Cell-Based Dose Retest to Confirm Inhibitors of Cancer Stem Cells. [Related pubchem assays (depositor defined):AID2717, AID2721]; type: functional; settings: Homo sapiens
[6] = microbe, parasite or virus in culture; type: functional; settings: Mycobacterium tuberculosis
cells [7] = type: functional, cell-based
cells [8] = type: functional, cell-based; remark: listed apart in the source
[9] = P. falciparum Dd2 growth inhibitors, dose response, SYBR Green, cherry-picked samples (AID 1159567); type: functional, cell-based
[10] = inhibitors of intracellular T. cruzi replication, confirmation, NIH3T3 host cells, beta-gal luminescence (AID 2044); type: functional, cell-based;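 also: intracellular parasites grown in NIH/3T3 mouse fibroblasts as host cells; luminescent beta-galactosidase reporter signal from transgenic T. cruzi replicating inside host cells; inhibitors lower the luminescence signal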
[11] = cytotoxicity toward NIH3T3 fibroblasts, dose response, counter-screen, cell-based, ATP luminescence, mouse fibroblasts (AID 2010); type: functional;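 also: cells exposed to compound for about 90 hours before reading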
Cytochrome P450 2C19 = Cytochrome P450 2C19 (Homo sapiens, UniProt P33261); assay: Cytochrome panel assay with activity outcomes. Panel member name: p450-cyp2c19 Compounds with AC50 equal or less than 10 uM are considered active; type: functional; settings: read-out: AC50
[12] = molecular target: T3, Heat shock factor protein 1 (Mus musculus, UniProt P38532); assay: inhibition of MG132-induced HSE-luciferase signal, confirmation, cell-based, NIH3T3, luminescence, dose retest (AID 2382); type: functional;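 also: NIH3T3 fibroblasts with HSF1-driven luciferase reporter stressed by proteasome inhibitor MG132; luminescence from HSF1-driven luciferase expression after 8 hours of MG132 stress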
T3 sequence (P38532 whole entry): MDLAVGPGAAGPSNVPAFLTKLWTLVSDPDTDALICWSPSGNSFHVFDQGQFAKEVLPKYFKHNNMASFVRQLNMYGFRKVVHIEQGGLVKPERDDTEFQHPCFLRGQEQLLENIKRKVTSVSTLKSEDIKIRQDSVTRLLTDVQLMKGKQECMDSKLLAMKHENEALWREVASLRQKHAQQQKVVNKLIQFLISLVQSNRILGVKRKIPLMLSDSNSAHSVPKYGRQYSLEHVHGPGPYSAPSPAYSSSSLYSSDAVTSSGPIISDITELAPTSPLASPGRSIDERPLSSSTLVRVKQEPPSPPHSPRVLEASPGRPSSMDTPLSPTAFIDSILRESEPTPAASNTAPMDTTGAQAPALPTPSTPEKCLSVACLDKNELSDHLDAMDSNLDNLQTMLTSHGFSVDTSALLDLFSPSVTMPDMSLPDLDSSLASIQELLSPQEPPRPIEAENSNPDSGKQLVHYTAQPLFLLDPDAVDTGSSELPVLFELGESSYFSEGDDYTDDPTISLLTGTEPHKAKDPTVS

Paired box protein Pax-8 = Paired box protein Pax-8 (Homo sapiens, UniProt Q06710); assay: inhibitors of PAX8-driven TPO luciferase reporter, dose response, RMG-I cells, cherry-pick (AID 687027); type: functional, cell-based;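 also: luciferase reporter driven by Pax8 target thyroperoxidase promoter measured by SteadyGlo luminescence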
[13] = Luminescence Cell-Based Dose Response HTS to Identify Activators of Luciferase Translation or Activity in H4 […] Cells. [Related pubchem assays: 1829 (Project Summary), 1814 (Primary HTS)]; type: functional
[14] = HEp-2 cell cytotoxicity, dose response, cytotoxicity control for RSV inhibitor project, HTS (AID 2410); type: functional; settings: human respiratory syncytial virus
H4 = assay: Luminescence Cell-Based Dose Response HTS to Identify Activators of 5'UTR Stem-Loop Driven Prion Protein mRNA Translation in H4 Neuroglioblastoma Cells. [Related pubchem assays: 1829 (Project Summary), 1814 (Primary HTS)]; type: functional; settings: Homo sapiens
INS1 = assay: beta cell apoptosis inhibitors, cytokine rescue, dose response, luminescence, retest (AID 449756); type: functional, cell-based; settings: Rattus norvegicus;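 also: cell death triggered by IL-1 beta plus TNF-alpha plus IFN-gamma mixture; protective hits raise ATP signal compared with cytokine alone wells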

Paired box protein Pax-8, sequence (Q06710 whole entry): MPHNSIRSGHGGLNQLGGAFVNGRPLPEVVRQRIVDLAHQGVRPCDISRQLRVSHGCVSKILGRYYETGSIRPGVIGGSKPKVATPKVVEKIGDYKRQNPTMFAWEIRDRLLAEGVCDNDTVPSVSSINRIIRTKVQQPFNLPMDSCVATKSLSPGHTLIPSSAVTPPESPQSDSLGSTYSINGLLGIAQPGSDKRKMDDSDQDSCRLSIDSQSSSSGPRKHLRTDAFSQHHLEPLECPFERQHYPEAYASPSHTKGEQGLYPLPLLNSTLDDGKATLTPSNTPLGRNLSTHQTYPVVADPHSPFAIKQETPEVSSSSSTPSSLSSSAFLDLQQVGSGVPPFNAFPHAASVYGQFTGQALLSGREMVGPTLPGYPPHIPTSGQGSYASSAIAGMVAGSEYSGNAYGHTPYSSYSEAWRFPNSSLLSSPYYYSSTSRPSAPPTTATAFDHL
FAD-linked sulfhydryl oxidase ALR, sequence (P55789 whole entry): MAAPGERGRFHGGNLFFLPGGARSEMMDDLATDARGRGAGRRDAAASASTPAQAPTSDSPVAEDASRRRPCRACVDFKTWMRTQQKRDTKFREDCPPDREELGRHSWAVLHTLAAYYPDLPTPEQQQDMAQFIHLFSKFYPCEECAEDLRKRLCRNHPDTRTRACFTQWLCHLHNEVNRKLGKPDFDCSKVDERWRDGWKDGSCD
Cytochrome P450 2C19, sequence (P33261 whole entry): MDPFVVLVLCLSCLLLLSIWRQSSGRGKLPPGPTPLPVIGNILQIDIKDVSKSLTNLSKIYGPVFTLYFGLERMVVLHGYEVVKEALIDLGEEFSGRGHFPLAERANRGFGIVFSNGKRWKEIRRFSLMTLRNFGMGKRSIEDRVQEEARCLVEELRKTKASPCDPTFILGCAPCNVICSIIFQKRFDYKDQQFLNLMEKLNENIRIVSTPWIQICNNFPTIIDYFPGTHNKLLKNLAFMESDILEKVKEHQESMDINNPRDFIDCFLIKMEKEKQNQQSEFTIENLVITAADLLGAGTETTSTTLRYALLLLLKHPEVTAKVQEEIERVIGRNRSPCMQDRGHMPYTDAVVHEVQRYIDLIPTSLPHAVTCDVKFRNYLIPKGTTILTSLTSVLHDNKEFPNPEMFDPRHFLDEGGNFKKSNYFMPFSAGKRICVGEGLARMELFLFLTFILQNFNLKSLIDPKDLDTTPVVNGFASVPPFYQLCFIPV

CC(C)Oc1cccc(C(=O)Nc2ccc(CN3CCOCC3)cc2)c1
IC50 (Protein skinhead-1): 31.1 µM (active)

Cc1c(/C=N\NC(=O)c2ccc(F)cc2)cnn1C
AC50 [1]: 4.3 µM (active)

CCN1CCN(CC(=O)Nc2sc3c(c2C#N)CCC(C)C3)CC1 (stereo not drawn)
EC50 [2]: 15.8 µM (active) | EC50 [3]: 17.9 µM (active)

S=C(NCc1ccco1)N/N=C/c1ccccc1Cl
IC50 [4]: 2.44 µM (not active)

CC1(c2ccc(O)cc2)NC(=O)N(c2ccccc2)N1 (stereo not drawn)
AC50 [1]: 0.015 µM (active) | AC50 [5]: 4.14 µM (active)

C#CCN1C(=O)S/C(=C/C=C/c2ccc(N(C)C)cc2)C1=O
IC50 (Protein skinhead-1): > 100 µM (inactive)

O=C(/C=C/c1c(F)cccc1Cl)c1ccc(F)cc1
CC50 [6]: > 40 µM (active)

C/C(=N/NC(=O)c1cc(-c2cccc([N+](=O)[O-])c2)[nH]n1)c1ccc(Cl)cc1
IC50 [4]: 13.6 µM (not active)

CC(=O)c1ccc(-n2nncc2-c2ccc([N+](=O)[O-])cc2)cc1
IC50 (Protein skinhead-1): > 100 µM (inactive)

FC(F)(F)c1ccc(-c2n[nH]c(S)n2)cc1
EC50 (cells [7]): > 350 µM (not active) | EC50 (cells [8]): > 350 µM (not active) | AC50 [1]: 0.248 µM (active)

N#Cc1ccc(CN2CCN(C(=O)c3cc(C4CC4)nn3-c3ccccc3)CC2)cc1
IC50 (Protein skinhead-1): 37.5 µM (active)

OC[C@H]1CC[C@@H]2O[C@H](CCc3ccc(-c4ccc(F)cc4)cc3)[C@H](n3cc(C4CC4)nn3)C[C@@H]2O1
AC50 [9]: 5 µM (active)

CN(CCCNC(=O)c1cc2c(Cl)nc3ccccc3c2s1)Cc1ccccc1
EC50 [10]: 0.771 µM (active) | EC50 [11]: > 60 µM (not active) | CC50 [6]: 22.2 µM (active)

CC(/C=N/n1c(S)nnc1-c1ccccn1)=C\c1ccccc1
AC50 [1]: 5.86 µM (active)

CC(C)Cn1c(N)c(C(=O)COC(=O)/C=C/c2cccs2)c(=O)n(C)c1=O
IC50 [4]: > 50 µM (not active)

O=[N+]([O-])c1ccc(COc2ccc(CN3CCCCC3)cc2)cc1
IC50 (Protein skinhead-1): 3.46 µM (active)

CNc1ccccc1C(=O)OC(C)C(=O)Nc1ccc(Cl)cn1 (stereo not drawn)
CC50 [6]: 25.3 µM (active)

CC(=O)c1ccc(S(=O)(=O)Nc2cccc(S(=O)(=O)NC3=NCCC3)c2)cc1
AC50 [1]: > 100 µM (inactive)

O=C(CNCc1ccccc1)Nc1ccc(Oc2ccccc2)cc1
IC50 [4]: > 50 µM (not active)

Cc1ccc2nc(C)cc(N/N=C/c3cccnc3)c2c1
AC50 [1]: 6.08 µM (active)

COc1cccc(CN2[C@@H]3CNC[C@H]2[C@H]3c2ccc(-c3ccccc3OC)cc2)c1
AC50 [9]: 5.81 µM (active)

CC(=O)Nc1ccc2c(c1Br)Cc1ccccc1-2
IC50 (Protein skinhead-1): > 100 µM (inactive)

CC(=O)Nc1ccc(NC(=O)CC2Nc3cccc4cccc(c34)NC2=O)cc1 (stereo not drawn)
AC50 (Cytochrome P450 2C19): 39.8 µM (inconclusive) | AC50 [1]: 7.99 µM (active)

C(=N\Nc1ccc2ccccc2n1)/c1ccc2c(c1)OCCO2
CC50 [6]: > 40 µM (active) | EC50 [12]: < 0.16 µM (active)

COc1ccc2c3c([nH]c2c1)[C@@H](CO)N(S(C)(=O)=O)CC31CCN(Cc2cccc(F)c2)CC1
AC50 [9]: 4.86 µM (active)

Clc1ccccc1-c1nnc2sc(-c3cccs3)nn12
IC50 [4]: 2.83 µM (not active)

CCNC(=O)c1cc2c(c(-c3cccc(-c4cc5ccccc5o4)c3)n1)[C@@H](CCO)N(C(=O)NC(C)C)C2
AC50 [9]: 6.29 µM (active)

O=C(NC(c1ccc(Cl)cc1)c1c(O)ccc2ccccc12)c1ccccc1 (stereo not drawn)
EC50 [2]: 7.75 µM (active) | EC50 [3]: 8.69 µM (active) | AC50 [5]: 1.23 µM (active)

COC(=O)c1ccc2nc(-c3ccc(C)cc3)c(Cc3cccc(F)c3)n2c1
IC50 (Protein skinhead-1): > 100 µM (inactive)

O=C(Nc1ccccc1NC(=O)NC1CCCCC1)NC1CCCCC1
EC50 [2]: 15.1 µM (active) | EC50 [3]: 17.8 µM (active)

Cc1ccc(NC(=O)c2ccc(C(C)(C)C)cc2)cc1-n1cnnn1
IC50 [4]: 0.895 µM (not active)

C[C@@H]1CN([C@H](C)CO)C(=O)c2cc(NS(=O)(=O)c3ccc(F)cc3)ccc2O[C@@H](C)CCCCO[C@H]1CN(C)Cc1ccccc1
AC50 (Paired box protein Pax-8): 17.2 µM (active)

O=C(c1ccccn1)N1CC(=O)N2[C@H](CO)[C@@H](c3ccc(C#CCc4ccccc4)cc3)[C@@H]2C1
AC50 [9]: 6.31 µM (active)

O=C(/C=C/c1ccco1)Nc1nc(-c2ccccc2)cs1
IC50 (Protein skinhead-1): 68.6 µM (inactive)

CCCCCn1cnc2sc(-c3ccccc3)cc2c1=O
EC50 [13]: 2.43 µM (active) | CC50 [14]: > 50 µM (active) | IC50 (Protein skinhead-1): > 100 µM (inactive) | EC50 (H4): 6.94 µM (active)

OC(COc1cccc2ccccc12)CN1CCN(c2ccccc2Cl)CC1 (stereo not drawn)
IC50 [4]: 3.82 µM (not active)

COc1ccc(N2CCN(C(CNC(=O)C(C)C)c3ccc4c(c3)OCO4)CC2)cc1 (stereo not drawn)
AC50 [1]: 4.01 µM (active)

Nc1ccccc1C#Cc1ccc2[nH]ccc2c1
AC50 [1]: 14.9 µM (active)

CCCCCc1cc(=O)oc2c(C(CCN3CCCCC3)c3ccc4c(c3)OCO4)c(OC)cc(OC)c12 (stereo not drawn)
AC50 (INS1): 8 µM (active) | AC50 (Paired box protein Pax-8): 13.4 µM (active) | AC50 [5]: 6.41 µM (active)

C[C@@H]1CN([C@@H](C)CO)S(=O)(=O)c2ccc(C#Cc3ccc(F)cc3)cc2O[C@@H]1CN(C)C(=O)NC1CCCCC1
AC50 (Paired box protein Pax-8): 8.43 µM (active)

COc1cccc(S(=O)(=O)N2CC[C@@H]3[C@H](CO)Nc4ccc(C5=CCCCC5)cc4[C@@H]32)c1
AC50 (Paired box protein Pax-8): 10 µM (active)

N#Cc1c(Cl)cccc1Oc1ccc(S(=O)(=O)Nc2ccccc2)cc1
IC50 [4]: > 50 µM (not active)

CCCCN1C[C@H](c2ccc(Br)cc2)[C@@H](CC(=O)Nc2ccc(Br)cc2)C1=O
IC50 (Protein skinhead-1): > 100 µM (inactive)

CN(CC(=O)Nc1ccc(N2CCOCC2)cc1)Cc1cc(=O)n2ccsc2n1
IC50 [4]: < 0.4 µM (not active)

Cc1c(C(=O)/C=C/c2cccs2)oc2ccc(F)cc12
EC50 [13]: 0.139 µM (active) | IC50 (Protein skinhead-1): > 100 µM (inactive) | EC50 (H4): 34.1 µM (inconclusive)

CCCC(=O)N1CC2(C1)CN(Cc1ccc(Cl)cc1)[C@H](CO)c1[nH]c3cc(OC)ccc3c12
AC50 [9]: 6.65 µM (active)

C=CCn1c(Sc2nc(C)cs2)nc2c1c(=O)[nH]c(=O)n2C
IC50 [4]: > 50 µM (not active) | CC50 [14]: 32.4 µM (active)

O=C(CN1C(=O)c2ccccc2C1=O)Nc1ccc(-c2nc3ccccc3o2)cc1
IC50 [4]: 17.9 µM (not active)

N#C[C@@H]1[C@H](c2ccccc2/C=C/c2ccccc2)[C@H](CO)N1S(=O)(=O)c1ccc(F)cc1
AC50 [9]: 6.19 µM (active)
